Measured values as given in patent US9783539B2, “Indoloquinolone compounds as anaplastic lymphoma kinase (ALK) inhibitors” (Jiangsu Ascentage Biomed Development Inc., priority 2014, dated 2017).
Values joined by “and” are separate entries in the source; they are usually repeats but may differ in a detail not shown here. Identical values can stand only once. Like-named read-outs stand apart in the source and are kept apart here.

What was measured:
[1] = Pharmacokinetic parameters in SD rats, IV and PO; parameters: AUC(0-t): concentration or dose not given beside the values; details: Sprague-Dawley (SD), rat, in vivo; for bioavailability: po, read-out: Oral Bioavailability (F)
From the text: The pharmacokinetic (PK) parameters in SD rats for selected compounds with intravenous (IV) and oral (PO) administrations are provided in the following table (Table 5).

[2] = tested on: Kappas-299 cells containing NPM-ALK fusion protein; experiment: 4-day cell viability assay (CellTiter-Glo), Kappas-299; assay type: cell-based; details: inhibition of cell growth, 4 days, multiple values from independent experiments
Procedure: The effect of compounds on cell viability was determined in a 4-day proliferation assay. Cells were maintained in RPMI1640 culture medium with 10% FBS at 37° C. and an atmosphere of 5% CO2. […] Cells were seeded in 96-well plates at a density of 3,000-10,000 cells/well in 75 μl of culture medium. Compounds were serially diluted in the appropriate medium, and 75 μl of the diluted compounds were added to the appropriate wells of the cell plate. After the addition of compounds, the cells were incubated at 37° C. in an atmosphere of 5% CO2 for 4 days. Cell viability was determined using the CellTiter-Glo® Luminescent Cell Viability Assay Kit (Promega, Madison, Wis.) (for KARPAS-299 cells) or WST (2-(2-methoxy-4-nitrophenyl)-3-(4-nitrophenyl)-5-(2,4-disulfophenyl)-2H-tetrazolium, monosodium salt) Cell Counting-8 Kit (Dojindo Molecular Technologies, Inc., Rockville, Md.) (for H3122 cells) according to the manufacturers' instructions.
For CellTiter-Glo assay, 100 μl of CellTiter-Glo® Reagent was added to each well, and then the plates were incubated at room temperature for 10-20 minutes. The luminescent signal was measured using a Tecan Infinite M1000 multimode microplate reader (Tecan, Morrisville, N.C.). The readings were normalized to the DMSO-treated cells and the IC50 was calculated by nonlinear regression analysis using the GraphPad Prism 5 software.
Cells were treated for four days and cell growth was determined using a CellTiter-Glo assay.

[3] = molecular target: wild-type human ALK protein (cytoplasmic domain, amino acid 1058-1620, GST-fusion) (Homo sapiens, UniProt Q9UM73); experiment: biochemical; details: ALK IC50, wild-type ALK; 100 μM ATP
Procedure: Kinase activities of all enzymes were assessed using a Lance TR-FRET assay kit from Perkin Elmer Life Sciences (Waltham, Mass.). 2.5 μL of compound solution and 5 μL of protein solution were added into a black low volume 384 well microtiter plate which was incubated for 15 minutes with gentle shaking at room temperature, followed by adding 2.5 μL of fluorescently labeled peptide substrate (Ulight-[sequence]) and ATP mixture solution. The kinase reaction was performed in 50 mM HEPES (pH 7.5) with 1 mM EGTA, 1 mM MgCl2, and 2 mM DTT, 0.01% Tween-20 added right before the assay. […] The reaction was allowed to perform for 90 minutes in dark with gentle shaking at room temperature after which 10 μL of 20 mM EDTA and 2 nM Eu-W1024 anti-phosphotyrosine antibody (PT66) mixture solution in the detection buffer from the manufacturer was added to terminate the reaction and detect the phosphorylation of the peptide substrate. Final mixture was incubated in the dark for 1 hour before the plate was read on a Tecan Infinite M-1000 multi-mode plate reader (Tecan, Durham N.C.) with an excitation wavelength of 320 nm.

[4] = intravenous, read-out: AUC0-t IV
[5] = intravenous, read-out: t1/2 IV (converted)
[6] = oral, read-out: t1/2 PO (converted)

Chain of wild-type human ALK protein (cytoplasmic domain, amino acid 1058-1620, GST-fusion) (Q9UM73 1058-1620): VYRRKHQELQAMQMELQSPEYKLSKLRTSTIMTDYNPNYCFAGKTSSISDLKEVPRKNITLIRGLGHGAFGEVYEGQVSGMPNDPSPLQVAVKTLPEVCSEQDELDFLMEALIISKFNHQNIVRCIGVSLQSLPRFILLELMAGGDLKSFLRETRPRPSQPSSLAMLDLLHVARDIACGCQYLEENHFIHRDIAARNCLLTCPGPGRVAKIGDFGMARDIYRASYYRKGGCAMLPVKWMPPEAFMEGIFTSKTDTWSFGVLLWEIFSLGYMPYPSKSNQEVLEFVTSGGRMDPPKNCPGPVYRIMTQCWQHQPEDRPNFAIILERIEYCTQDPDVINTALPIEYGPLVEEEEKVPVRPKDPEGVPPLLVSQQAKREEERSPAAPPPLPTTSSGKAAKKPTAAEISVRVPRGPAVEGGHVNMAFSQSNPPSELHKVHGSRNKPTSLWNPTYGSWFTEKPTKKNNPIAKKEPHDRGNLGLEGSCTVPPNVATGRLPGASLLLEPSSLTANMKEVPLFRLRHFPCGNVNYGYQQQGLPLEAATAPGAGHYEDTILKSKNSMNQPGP

COc1cc2c(=O)c3c4ccc(C#N)cc4[nH]c3n(C(C)C)c2c(F)c1C1CCN(C)CC1 [CJ-2212, 4-Fluoro-5-isopropyl-2-methoxy-3-(1-methylpiperidin-4-yl)-11-oxo-6,11-dihydro-5H-indolo[2,3-b]quinoline-8-carbonitrile]
AUC(0-t) [1, 4]: 574 ng·h/mL | Cmax ([1]; intravenous, read-out: Cmax IV): 169 ng/mL | Tmax ([1]; intravenous, read-out: Tmax IV): 4.98 min | half-life [1, 5]: 287 min | AUC(0-t) ([1]; oral, read-out: AUC0-t PO): 2060 ng·h/mL | Cmax ([1]; oral, read-out: Cmax PO): 208 ng/mL | Tmax ([1]; oral, read-out: Tmax PO): 320 min | half-life [1, 6]: 245 min | bioavailability [1]: 70.6%

COc1cc2c(=O)c3c4ccc(C#N)cc4[nH]c3n(C(C)C)c2cc1N1CCC(N2CCOCC2)CC1 [ALK-25, 5-isoPropyl-2-methoxy-3-(4-morpholinopiperidin-1-yl)-11-oxo-6,11-dihydro-5H-indolo[2,3-b]quinoline-8-carbonitrile]
IC50 ([2]; NPM-ALK, 96 h): 137 nM | IC50 [3]: 17.8 nM

C=C(C)c1cc2c(=O)c3c4ccc(C#N)cc4[nH]c3n(C(C)C)c2cc1N1CCN(C)CC1 [ALK-51, 5-isoPropyl-3-(4-methylpiperazin-1-yl)-11-oxo-2-(prop-1-en-2-yl)-6,11-dihydro-5H-indolo[2,3-b]quinoline-8-carbonitrile]
IC50 ([2]; NPM-ALK, 96 h): 70 nM | IC50 [2]: 99 nM | IC50 [3]: 20.5 nM

CC(C)n1c2cc(N3CCN(C)CC3)c(OC(F)F)cc2c(=O)c2c3ccc(C#N)cc3[nH]c21 [ALK-59, 2-(Difluoromethoxy)-5-isopropyl-3-(4-methylpiperazin-1-yl)-11-oxo-6,11-dihydro-5H-indolo[2,3-b]quinoline-8-carbonitrile]
IC50 ([2]; NPM-ALK, 96 h): 447 nM | IC50 [3]: 1.6 nM

COc1cc2c(=O)c3c4ccc(C#N)cc4[nH]c3n(C)c2cc1N1CCC(N2CCOCC2)CC1 [ALK-22, 2-Methoxy-5-methyl-3-(4-morpholinopiperidin-1-yl)-11-oxo-6,11-dihydro-5H-indolo[2,3-b]quinoline-8-carbonitrile]
IC50 ([2]; NPM-ALK, 96 h): 90.3 nM | IC50 [3]: 661 nM

CCOc1cc2c(=O)c3c4ccc(C#N)cc4[nH]c3n(C3CCCC3)c2cc1N1CCN(C)CC1 [ALK-54, 5-Cyclopentyl-2-ethoxy-3-(4-methylpiperazin-1-yl)-11-oxo-6,11-dihydro-5H-indolo[2,3-b]quinoline-8-carbonitrile]
IC50 ([2]; NPM-ALK, 96 h): 63 nM | IC50 [3]: 24.7 nM

COc1cc2c(=O)c3c4ccc(C#N)cc4[nH]c3n(C)c2cc1N1CCN(C)CC1 [ALK-23, 2-Methoxy-5-methyl-3-(4-methylpiperazin-1-yl)-11-oxo-6,11-dihydro-5H-indolo[2,3-b]quinoline-8-carbonitrile]
IC50 [3]: 309 nM

CCc1cc2c(=O)c3c4ccc(C#N)cc4[nH]c3n(C(C)C)c2cc1N1CCNCC1 [ALK-81, 2-Ethyl-5-isopropyl-11-oxo-3-(piperazin-1-yl)-6,11-dihydro-5H-indolo[2,3-b]quinoline-8-carbonitrile]
IC50 ([2]; NPM-ALK, 96 h): 440 nM | IC50 [3]: 0.1 nM

CCc1cc2c(=O)c3c4ccc(C#N)cc4[nH]c3n(CC)c2cc1N1CCN(C)CC1 [ALK-49, 2,5-Diethyl-3-(4-methylpiperazin-1-yl)-11-oxo-6,11-dihydro-5H-indolo[2,3-b]quinoline-8-carbonitrile]
IC50 ([2]; NPM-ALK, 96 h): 317 nM | IC50 [2]: 546 nM | IC50 [3]: 1.9 nM and 2.8 nM

CCc1cc2c(=O)c3c4ccc(C#N)cc4[nH]c3n(C(C)C)c2cc1C1CCNCC1 [CJ-2204, 2-Ethyl-5-isopropyl-11-oxo-3-(piperidin-4-yl)-6,11-dihydro-5H-indolo[2,3-b]quinoline-8-carbonitrile]
IC50 ([2]; NPM-ALK, 96 h): 768 nM | IC50 [3]: 0.26 nM

COc1cc2c(=O)c3c4ccc(C#N)cc4[nH]c3n(CC(C)(C)C)c2cc1N1CCN(C)CC1 [ALK-43, 2-Methoxy-3-(4-methylpiperazin-1-yl)-5-neopentyl-11-oxo-6,11-dihydro-5H-indolo[2,3-b]quinoline-8-carbonitrile]
IC50 ([2]; NPM-ALK, 96 h): 266 nM | IC50 [2]: 261 nM | IC50 [3]: 28.5 nM

COc1cc2c(=O)c3c4ccc(C#N)cc4[nH]c3n(C(C)C)c2c(F)c1C1CCN(C2CCOCC2)CC1 [CJ-2226, 4-Fluoro-5-isopropyl-2-methoxy-11-oxo-3-(1-(tetrahydro-2H-pyran-4-yl)piperidin-4-yl)-6,11-dihydro-5H-indolo[2,3-b]quinoline-8-carbonitrile]
AUC(0-t) [1, 4]: 1000 ng·h/mL | Cmax ([1]; intravenous, read-out: Cmax IV): 296 ng/mL | Tmax ([1]; intravenous, read-out: Tmax IV): 4.98 min | half-life [1, 5]: 262 min | AUC(0-t) ([1]; oral, read-out: AUC0-t PO): 2370 ng·h/mL | Cmax ([1]; oral, read-out: Cmax PO): 230 ng/mL | Tmax ([1]; oral, read-out: Tmax PO): 280 min | half-life [1, 6]: 299 min | bioavailability [1]: 47.3%

CCc1cc2c(=O)c3c4ccc(C#N)cc4[nH]c3n(C3CCC3)c2cc1N1CCN(C)CC1 [ALK-45, 5-cyclobutyl-2-ethyl-3-(4-methylpiperazin-1-yl)-11-oxo-6,11-dihydro-5H-indolo[2,3-b]quinoline-8-carbonitrile]
IC50 ([2]; NPM-ALK, 96 h): 35 nM | IC50 [2]: 62 nM | IC50 [3]: 1.8 nM and 5.1 nM

C=Cc1cc2c(=O)c3c4ccc(C#N)cc4[nH]c3n(C(C)C)c2cc1N1CCN(C)CC1 [ALK-46, 5-isoPropyl-3-(4-methylpiperazin-1-yl)-11-oxo-2-vinyl-6,11-dihydro-5H-indolo[2,3-b]quinoline-8-carbonitrile]
IC50 ([2]; NPM-ALK, 96 h): 60 nM | IC50 [2]: 102 nM | IC50 [3]: 1.8 nM and 1.5 nM

CCc1cc2c(=O)c3c4ccc(C#N)cc4[nH]c3n(C(C)C)c2cc1N1CCOCC1 [ALK-82, 2-Ethyl-5-isopropyl-3-morpholino-11-oxo-6,11-dihydro-5H-indolo[2,3-b]quinoline-8-carbonitrile]
IC50 ([2]; NPM-ALK, 96 h): 46 nM | IC50 [3]: 2.3 nM

COc1cc2c(=O)c3c4ccc(C#N)cc4[nH]c3n(C(C)C)c2c(F)c1C1CCN(C2COC2)CC1 [CJ-2224, 4-Fluoro-5-isopropyl-2-methoxy-3-(1-(oxetan-3-yl)piperidin-4-yl)-11-oxo-6,11-dihydro-5H-indolo[2,3-b]quinoline-8-carbonitrile]
AUC(0-t) [1, 4]: 2340 ng·h/mL | Cmax ([1]; intravenous, read-out: Cmax IV): 959 ng/mL | Tmax ([1]; intravenous, read-out: Tmax IV): 4.98 min | half-life [1, 5]: 283 min | AUC(0-t) ([1]; oral, read-out: AUC0-t PO): 9640 ng·h/mL | Cmax ([1]; oral, read-out: Cmax PO): 1170 ng/mL | Tmax ([1]; oral, read-out: Tmax PO): 40.2 min | half-life [1, 6]: 232 min | bioavailability [1]: 81.5%

COc1cc2c(=O)c3c4ccc(C#N)cc4[nH]c3n(C(C)C)c2c(F)c1C1CCN(C(C)C)CC1 [CJ-2225, 4-Fluoro-5-isopropyl-3-(1-isopropylpiperidin-4-yl)-2-methoxy-11-oxo-6,11-dihydro-5H-indolo[2,3-b]quinoline-8-carbonitrile]
AUC(0-t) [1, 4]: 1110 ng·h/mL | Cmax ([1]; intravenous, read-out: Cmax IV): 212 ng/mL | Tmax ([1]; intravenous, read-out: Tmax IV): 13.3 min | half-life [1, 5]: 272 min | AUC(0-t) ([1]; oral, read-out: AUC0-t PO): 2340 ng·h/mL | Cmax ([1]; oral, read-out: Cmax PO): 225 ng/mL | Tmax ([1]; oral, read-out: Tmax PO): 320 min | half-life [1, 6]: 259 min | bioavailability [1]: 41.7%

CCc1cc2c(=O)c3c4ccc(C#N)cc4[nH]c3n(C3CCCC3)c2cc1N1CCN(C)CC1 [ALK-48, 5-Cyclopentyl-2-ethyl-3-(4-methylpiperazin-1-yl)-11-oxo-6,11-dihydro-5H-indolo[2,3-b]quinoline-8-carbonitrile]
IC50 ([2]; NPM-ALK, 96 h): 70 nM | IC50 [2]: 84 nM | IC50 [3]: 15.1 nM

CCC(CC)n1c2cc(N3CCN(C)CC3)c(OC)cc2c(=O)c2c3ccc(C#N)cc3[nH]c21 [ALK-40, 2-Methoxy-3-(4-methylpiperazin-1-yl)-11-oxo-5-(pentan-3-yl)-6,11-dihydro-5H-indolo[2,3-b]quinoline-8-carbonitrile]
IC50 ([2]; NPM-ALK, 96 h): 415 nM | IC50 [3]: 29.7 nM
